Results on 3 compounds are retold here after publication PMC11729428, “New Potent Inhibitor of Transforming Growth Factor-Beta (TGFβ) Signaling that is Efficacious against Microsatellite Stable Colorectal Cancer Metastasis in Combination with Immune Checkpoint Therapy in Mice” (ACS Pharmacology & Translational Science, 2024).

One data set concerns the target T1, p38α (Homo sapiens, UniProt Q16539).
T1 construct: p38alpha was used as a full -length recombinant protein; purchased Eurofins Pharma Discovery Services / Eurofins Cerep (Kinase Profiler service)
As to the kind of experiment: Radiometric in vitro kinase activity assay (Kinase Profiler). The class given is biochemical. The settings on record: full-length recombinant protein; read-out: kinase inhibition IC50, p38α. The procedure:
5. Methods for In vitro characterizations of HYL001
Kinase affinity and selectivity […]
The activity, measured as IC50, of inhibitors was determined by radiometric γ-33P-ATP-mediated in vitro phosphorylation assays, using the Kinase Profiler service from Eurofins Pharma Discovery Services (Wolverhampton, UK) and Eurofins Cerep (Celle L’Evescault, France). Compounds, prepared in 100% DMSO, were tested using a 9-point curve with half -log serial dilutions (1–10,000 nM). […]

Another data set is described as follows: Solubility. The class given is physicochemical. The procedure: The solubilities in this solution are 0.7 mg/mL (1b) and 0.23 mg/mL (1a). In most in vivo experiments, a homogeneous suspension in the following vehicle was used: sodium carboxymethylcellulose (1%), sodium dodecyl sulfate (0.4%), polyvinylpyrrolidone (0.085%), and antifoam-A (0.05%). The solubilities in this vehicle are approximately 0.15 mg/mL (1b) and 0.09 mg/mL (1a). […] Therefore, as a proof-of-concept, we leveraged the hydroxyl handle to design HYL002. We added a carbonyl-4-piperidinopiperidine group, in analogy to the ester that solubilizes SN-38 into irinotecan, and that can be cleaved via hydrolysis inside cells[19] (Figure S1). HYL001 reacted with commercially available 4-piperidinopiperidine-1-carbonyl chloride in chloroform using triethylamine and catalytic amounts of DMAP (Scheme S1). We then transformed the resulting compound HYL002 into the corresponding HCl salt to aid the in vivo drug formulation. The free base was dissolved in dioxane under N2, where it was treated dropwise with 10 equiv of 4 M HCl in dioxane at room temperature with vigorous stirring. The reaction mixture was then taken to dryness in vacuo, giving the HCl salt of HYL002.

Data set [1] in a line: Exploratory toxicology study in Balb/C mice. The format is in vivo. As for the experimental part:
In comparison to that in rats, toxicity of TGFβ receptor-1 inhibitors in mice was less severe (Figure 4). […] Histopathology examination in bones found relatively mild phenotypes (Figure 4A).
performed using GraphPad Prism statistical software version 5.02 for Windows, GraphPad Software, San Diego
The study design in mice was similar as in rats, except 5 mice of each sex were used (n=10 in total), and that
there was not a recovery group. All analyses were performed at day 29 after termination of treatment.

For data set [2], the system named is mouse tumor organoids (MTOs), CRC liver metastases. As to the kind of experiment: Prevention of liver metastasis formation after MTO injection (monotherapy). The class given is in vivo, mice. The settings on record: 0.1× dose: 71 mg/kg BID HYL001, 80 mg/kg BID galunisertib. As for the experimental part: We first assayed the capacity of HYL001 to inhibit liver metastasis formation as a monotherapy. In this model, we inoculated MTOs derived from liver metastases into the portal vein (by intrasplenic or direct intravenous injection) to model their becoming trapped in hepatic sinusoids and, depending on their metastatic capacity, the initiation of liver nodules. […] Remarkably, 0.1 × mol equiv (71 mg/kg BID) of HYL001 was sufficient to prevent metastasis formation in 10 out of 11 animals.
Figure 5 HYL001 prevents metastasis formation in vivo. (A) Experimental scheme, including injection of MTOs. Experimental end point was at day 28, 2 weeks after treatment stop. […] (B) Liver metastases (Mets) were counted at end points; each point represents one mouse. Nonparametric Mann–Whitney U test, two-tailed. ns: P > 0.05; *P < 0.05; **P < 0.01; ***P < 0.001; (C) representative images of H & E whole slides containing liver sections from mice treated with TGFβ inhibitors; dashed line circles delimit metastases. […] 0.3× and 0.1×: dilutions thereof. Bars, 10 mm.
For all tumor cell injections, C57BL/6J (or athymic BALB/C nu/nu) mice were purchased from Janvier at 6 weeks of age and injected at 7–8 weeks. Sex was matched with the origin of the tumor organoids, i.e., males for this study. […] Visible liver metastases were counted, and data were analyzed using GraphPad Prism software (v.7.03). […]

For data set [3] the following is noted: rat, in vivo.
Method: (§1) Sprague-Dawley rats were procured from Hylasco Bio-Technology Pvt. Ltd., Hyderabad. After completion of
(§2) the acclimatization period twelve healthy rats were randomly allocated to the control and treatment g roups.
(§3) mg/kg BID) treated animals, having three rats/sex/group. Rats from control group received vehicle, consisting
(§4) quantity sufficient to 1% w/v Carboxy Methyl Cellulose Sodium Salt. Rats from treatment groups were
(§5) administered with suspensions of the indicated drugs in vehicle, orally twice a day fo r an intended period of 28
(§6) consecutive days. The dosing volume was kept constant at 10 mL/kg for each rat.
(§7) clinical sign that worsened during the treatment, were necropsied in the shortest time for ethical reasons. The
(§8) rest of the rats were necropsied at the end of the treatment.
(§9) asphyxiation on day 29, except for one group of HYL001 treated rats with 71 mg/kg BID, that were allowed to
(§10) recover from treatment for further 28 days.
(§11) The rats were subjected to detailed gross pathological examination which included careful examination of the
(§12) external surface of the body, all orifices and the cranial, thoracic and abdominal cavities and their contents. After
(§13) gross pathological examination the vital organs were trimmed of any adherent tissue and were weighed wet.
(§14) Paired organs were weighed together. Organ weights relative to terminal body weights were calculated for each
(§15) Parameters evaluated during the study included in-life observations such as clinical signs observation, body
(§16) weights, percent body weight gains, and feed consumption. Parameters like hematology, clinical chemistry,
(§17) gross pathology, and organ weights were evaluated on the day of termination. Several organs/tissues were further
(§18) processed and evaluated for histopathology, where special attention was given to bones, gastrointestinal system
(§19) (stomach, duodenum, jejunum, ileum, caecum, colon and rectum), heart, and vascular lesions in the aorta and
(§20) coronary arteries. For histopathology, 3-5 μM thick tissue sections were cut and stained with hematoxylin-eosin
(§21) stain. The heart was trimmed by longitudinally bisecting along a plane perpendicular to the plane of the
(§22) pulmonary artery to expose the right atrioventricular, left atrioventricular, and aortic valves. Both halves of the
(§23) heart were embedded as hemisection in paraffin with the cut surface down. Blocks were sectioned to obtain at
least three heart valves.
Data set [4] in a line: Exploratory toxicology study in SD rats. The settings on record: for Degeneration of heart valves (histopathology grade): HYL001: after 4 weeks of repeated dosing, vactosertib: after 7–8 days of treatment; for Retained hypertrophied cartilage physis in sternum and femur (grade): vactosertib: all animals, HYL001: a few females.
Method: as §1, §2, §3, §4, §5, §6, §7, §8, §9, §10, §11, §12, §13, §14, §15, §16, §17, §18, §19, §20, §21, §22, §23
least three heart valves.
For data set [5] the following is noted: oral, cited from earlier work.
For a further data set, the target named is T2, ACVR2B (Homo sapiens, UniProt Q13705).
T2 construct: purchased Eurofins/DiscoveryX (KINOMEscan service)
T2 sequence (Q13705 19-512): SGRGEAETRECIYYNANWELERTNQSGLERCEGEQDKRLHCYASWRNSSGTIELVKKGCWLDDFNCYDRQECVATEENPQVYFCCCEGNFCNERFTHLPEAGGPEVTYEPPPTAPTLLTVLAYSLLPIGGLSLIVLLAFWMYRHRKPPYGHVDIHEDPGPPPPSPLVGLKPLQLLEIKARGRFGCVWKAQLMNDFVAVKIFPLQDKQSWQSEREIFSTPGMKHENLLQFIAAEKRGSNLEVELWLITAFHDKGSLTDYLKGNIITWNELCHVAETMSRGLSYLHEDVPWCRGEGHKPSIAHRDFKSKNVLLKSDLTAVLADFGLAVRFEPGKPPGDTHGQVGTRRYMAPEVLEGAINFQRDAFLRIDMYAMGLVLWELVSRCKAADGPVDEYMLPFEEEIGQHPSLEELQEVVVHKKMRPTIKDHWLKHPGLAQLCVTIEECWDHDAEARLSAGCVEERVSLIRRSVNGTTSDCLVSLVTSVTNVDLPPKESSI
Also on record: method as in earlier work. Conditions: reported data ref 15; read-out: Binding constant (Kd) ACVR2B; cited from earlier work.

Setting [6] is: aqueous dosing vehicle (NaCMC/SDS/PVP/antifoam-A), aqueous with cosolvent or surfactant or cyclodextrin, vehicle: sodium carboxymethylcellulose (1%), sodium dodecyl sulfate (0.4%), polyvinylpyrrolidone (0.085%), antifoam-A (0.05%), read-out: Solubility.

Structures are written as SMILES. In brackets after ≈: the same amount, converted by molar mass. Read-outs that look alike come from different tables or passages of the source.

The term IC50 denotes the concentration that gives 50% inhibition. Broadly, the solubility is the concentration that dissolves in the medium under given conditions. One may read the Cmax as the maximum level reached in the sampled fluid or tissue. The Tmax is the time at which the peak concentration occurs. One may read the Kd as a measure of binding affinity in units of concentration.

T1 sequence (Q16539 whole entry): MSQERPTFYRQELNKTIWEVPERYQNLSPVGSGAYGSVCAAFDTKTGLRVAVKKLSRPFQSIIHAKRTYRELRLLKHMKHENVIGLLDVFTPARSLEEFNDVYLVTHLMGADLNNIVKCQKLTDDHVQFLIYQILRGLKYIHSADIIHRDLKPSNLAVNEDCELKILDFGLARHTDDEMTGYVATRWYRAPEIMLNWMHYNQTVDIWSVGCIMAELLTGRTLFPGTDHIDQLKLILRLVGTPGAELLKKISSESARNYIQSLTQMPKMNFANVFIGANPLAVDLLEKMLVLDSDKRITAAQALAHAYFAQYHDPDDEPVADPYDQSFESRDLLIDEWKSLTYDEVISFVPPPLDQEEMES

As to `Cc1cccc(-c2nn3c(c2-c2ccnc4ccc(O)cc24)CCC3)n1` [HYL001, 4-(2-(6-Methylpyridin-2-yl)-5,6-dihydro-4H-pyrrolo[1,2-b]pyrazol-3-yl)quinolin-6-ol], the IC50 on p38α came to 548 nM. Moreover, in “Solubility” (PBS/2-hydroxypropyl-β-cyclodextrin solution, aqueous with cosolvent or surfactant or cyclodextrin, solution of PBS/2-hydroxypropy-β-cyclodextrin (1 g/mL), read-out: Solubility), the solubility was determined as 230 µg/mL (≈ 672 µM). The solubility in “Solubility” (setting [6]) was roughly 90 µg/mL (≈ 263 µM). Also, the Solubility in water entry in “Solubility” is reported as “poorly soluble”. For the same compound, in data set [1] (mouse, in vivo), the “Female mice with slight inflammatory infiltrates in liver” value is 2/5 and the “Mortality or signs of morbidity” value is on record as “No mortality or signs of morbidity”. The “Number of mice without detectable liver metastases (liver mets NO)” value in data set [2] was 10 out of 11. Moreover, in data set [3], the “Animals showing a curved sternum at death or end point” value is on record as “Some female rats”. Also, in data set [4], the “Degeneration of heart valves (histopathology grade)” value was “minimal to mild”; the “Retained hypertrophied cartilage physis in sternum and femur (grade)” value is reported as “mild”. In addition, the Heart abnormalities result in data set [4] (low-dose group 1 (25 mg/kg BID)) is “no heart abnormalities were observed”. Moreover, the no-observed-adverse-effect level in data set [4] (male rats) worked out at 25 mg/kg BID. In addition, in data set [4] (rats of both sexes, oral, either dose level), the “Effects on body weight (gain), feed consumption, hematology, and clinical chemistry analytes” value was “no HYL001-related effects”.
Regarding `Cc1cccc(-c2nn3c(c2-c2ccnc4ccc(C(N)=O)cc24)CCC3)n1` [galunisertib], the 50% inhibitory concentration (IC50) on p38α came out at 920 nM. Also, the solubility in “Solubility” (setting [6]) was roughly 150 µg/mL (≈ 406 µM). In the data set “Solubility” (solution of PBS/2-hydroxypropy-β-cyclodextrin (1 g/mL)), this compound came in with a solubility of 700 µg/mL (≈ 1890 µM). The Solubility in water entry in “Solubility” is given as “poorly soluble”. For the same compound, in data set [2], the “Number of mice with detectable liver metastases (liver mets YES)” value is on record as “All treated animals developed metastases”. For the same compound, in data set [5] (mice (♀ CD-1), 75 mg/kg ref 20), the AUClast was 3110 ng·h/mL, the Cmax is reported as 3330 ng/mL, the T1/2 is 84 min and the time to peak (Tmax) was 30 min. In addition, the Kd on ACVR2B is 694 nM.
With `Cc1cccc(-c2[nH]c(CNc3ccccc3F)nc2-c2ccc3ncnn3c2)n1` [vactosertib, N -((4-([1,2,4]Triazolo[1,5-a]Pyridin-6-Yl)-5-(6-Methylpyridin-2-Yl)-1 H -Imidazole-2-Yl)Methyl)-2-Fluoroaniline], the “Mortality or signs of morbidity” value in data set [1] (equimolar dose, mice) is “No mortality or signs of morbidity”. The “Female mice with slight inflammatory infiltrates in liver” value in data set [1] (female, Balb/C, mouse, in vivo, 29 day) is 4/5. The Neutrophil count entry in data set [1] (mouse, in vivo) is given as “slight increase”. For the same compound, in data set [3], the “Animals showing a curved sternum at death or end point” value is “all”; the “Microscopic findings along the gastrointestinal tract” value is “minimal hyperplasia of the nonglandular stomach and chronic inflammation observed in one female rat”. In data set [5] (mice (FVB/N), 10 mg/kg ref 21), the AUCinf is recorded as 752 ng·h/mL, the AUClast is 724 ng·h/mL, the Cl/F is given as 222 mL/min/kg and the highest concentration (Cmax) was 625 ng/mL. Further, in data set [5] (mice (FVB/N), 10 mg/kg ref 21), the T1/2 was 196 min, the time to peak (Tmax) is 30 min and the Vss/F is 18 L/kg. Also, in data set [4], the “Degeneration of heart valves (histopathology grade)” value is “moderate”; the “Retained hypertrophied cartilage physis in sternum and femur (grade)” value is reported as “mild–moderate”. In addition, in data set [4] (at early end points (day 7–8)), the “Animals with chronic inflammation of the myocardium” value was “all 6”. Moreover, the Mortality result in data set [4] (group 4, equimolar dose (82 mg/kg BID)) is “all female rats were found dead on day 7 and all male rats had to be sacrificed on day 8”.
